Source: patent publication US20130261241A1, “METHODS FOR CONTROLLING WATER AMOUNT IN A POLYMER COMPOSITION OR SUBSTRATE” (Bendiner Technologies, LLC, priority 2009, published 2013)

## C/C=C/C=C/C(=O)[O-].[K+] [Potassium sorbate, potassium sorbate]
As potassium sorbate concentration is increased (0.0001% to 10%), no added sodium chloride
  change in zeta potential: less negative
Concentrations below approximately 0.01%
  effect on the zeta potential: no effect
